Where two headings read alike, the source gives them in different places.
Legend:
Multiple Myeloma = experiment: Anti-tumor activity of CAR-BCMA T cells and Compound (1) in patients; assay type: in vivo, human; details: CAR-BCMA T cells with a composition comprising Compound (1)
Description: All patients receive 3 doses of 300 mg/m^2 cyclophosphamide and 3 doses of 30 mg/m^2 fludarabine. Chemotherapy is administered because recipient leukocyte depletion enhances the activity of adoptively transferred T cells. Both chemotherapy agents are administered daily on days −5, −4, and −3 before CAR-BCMA T-cell infusion on day 0. CAR-BCMA T cells are administered to each patient with a composition comprising Compound (1). The dose escalation plan calls for an initial dose of 0.3×10^6 CAR^+ T cells/kg with threefold increases to each subsequent dose level.
Myeloma staging is conducted according to the International Uniform Response Criteria for Multiple Myeloma. Toxicity is graded by the Common Terminology Criteria for Adverse Events version 4.02. Two weeks, 1 month, 2 months, 3 months, and 6 months after CAR-BCMA infusion, MM is assessed with standard staging tests.
Autologous peripheral blood mononuclear cells (PBMCs) are cultured with an anti-CD3 monoclonal antibody to induce T-cell proliferation. The cells are transduced with the γ-retroviral vector that encodes that CAR, and 9 days after the initiation of cultures, CAR-BCMA T cells are infused.
CAR-BCMA T cells are detected by flow cytometry after staining with a phycoerythrin-labeled BCMA constant-fragment reagent (PE-BCMA-Fc). CAR-BCMA T cells are also detected by performing quantitative PCR (qPCR). […]

SUDHL-10 cells (DLBCL) = experiment: Cell surface BCMA by FACS; assay type: cell-based, human; details: for EC50: Homo sapiens
Description: […] cell lines, comprising 9 subtypes of lymphomas (see Table 1), were seeded at 1×10^5 cells/well in a total volume of 250 μl into a 96-well plate. The cells were cultured in RPMI medium supplemented with 10% FCS. Compound (22) was added to the cell cultures at a concentration of 10 μM, 1 μM, 100 nM, 10 nM, 1 nM, 100 pM, 10 pM, 1 pM, and 100 fM, and cell lines (8 from Hadassah Medical Center, 31 from Eurofins) were incubated at 37° C. for 24 hours with Compound (22). Following incubation, the cells were collected and BCMA levels were evaluated on the cell surface for cell-bound BCMA. Cells were stained with an anti-BCMA antibody (PE anti-human 19F2 BCMA, Biolegend), and cell surface BCMA levels were determined by FACS analysis (Mean Fluorescence Intensity. Soluble BCMA levels were analyzed by ELISA (Human BCMA/TNFRSF17 DuoSet kit: R&D Systems).

SMILES	anti-tumor response (Multiple Myeloma)	mBCMA (MFI) Fold Increase (SUDHL-10 cells (DLBCL))	BCMA (Mean Fluorescence Intensity) 1 nM Compound (22) (SUDHL-10 cells (DLBCL); 1 nM, 24 h)	BCMA (Mean Fluorescence Intensity) 100 nM Compound (22) (SUDHL-10 cells (DLBCL); 100 nM, 24 h)	EC50 (SUDHL-10 cells (DLBCL); SU-DHL10, 24 h, read-out: BCMA (Mean Fluorescence Intensity) EC50)	EC50 (SUDHL-10 cells (DLBCL); SU-DHL10, read-out: mBCMA (MFI) EC50)
CN1C(=O)[C@@H](NC(=O)[C@H](CCC(F)(F)F)[C@H](CCC(F)(F)F)C(N)=O)N=C(c2ccccc2)c2ccccc21 [Compound 1, (2R,3S)—N-((3S)-1-methyl-2-oxo-5-phenyl-2,3-dihydro-1H-1,4-benzodiazepin-3-yl)-2,3-bis(3,3,3-trifluoropropyl)succinamide]	improved anti-tumor response compared to either BCMA targeted CAR-T or Compound (1) treatment alone	–	–	–	–	–
Cc1cccc2c1NC(=O)[C@@H](NC(=O)[C@H](CCC(F)(F)F)[C@H](CCC(F)(F)F)C(N)=O)N=C2c1cccc(F)c1 [Compound (22), (2R,3S)—N-((3S)-5-(3-fluorophenyl)-9-methyl-2-oxo-2,3-dihydro-1H-1,4-benzodiazepin-3-yl)-2,3-bis(3,3,3-trifluoropropyl)succinamide]	–	6.7 fold	6061	7822	5.9 nM	5.9 nM
